Test results reported in US6613758B1, “Method for treating osteoporosis in castrated prostatic cancer patients” (Barr Laboratories, Inc., priority 1999, dated 2003).

What was measured:
[1] = pharmacokinetics of CPA in humans, plasma concentration; assay type: in vivo, human; conditions: longer period of continual dosing of 50 mg per day
From the text: The Androcur® Monograph, Berlex, Canada (1997) reports on the pharmacokinetics of CPA in humans. […] Blood levels of CPA are known to be generally dose dependent.

[2] = castrated adult rats; cited from earlier work
[3] = system: human breast cancer ZR-75-1 cells; conditions: low concentrations, in vitro; cited from earlier work
[4] = men; cited from earlier work
[5] = male subjects, oral, one 50 mg dose; cited from earlier work
[6] = cited from earlier work
[7] = orchiectomized patients, 6 months, 150 mg/day CPA (50 mg t.i.d.); cited from earlier work
[8] = 367 evaluable patients; criteria weight gain and pain relief; cited from earlier work
[9] = 17 patients, goserelin alone; cited from earlier work

In the case of `CC(=O)O[C@]1(C(C)=O)CC[C@H]2[C@@H]3C=C(Cl)C4=CC(=O)[C@@H]5C[C@@H]5[C@]4(C)[C@H]3CC[C@@]21C` [CPA, Cyproterone acetate], the “cumulative plasma level, steady state” value [1] is given as no less than 750 nmol/L, the “inhibition of complete involution of the ventral prostate” value [2] is given as “very weak” and the androgenic activity [3] is given as “possess androgenic activity”. For the same compound, the “threshold value for an antiandrogen effect” value [4] was 50 mg, the mean plasma concentration [5] was “about 700 nmol/L” and the “discontinuation due to side effects” value ([6]; 89 orchiectomized patients, 50 mg/day CPA, 2 to 152 months) was “in no case”. For the same compound, the “cases of hepatocellular carcinoma” value ([6]; over 2500 patients, long term CPA use) was “Not a single case”, the “number of patients experiencing hot flashes or outbreaks of sweating” value [7] was “decreased” and the “patients with general improvement in subjective assessment of quality of life” value [8] was 70%.

For `C#C[C@]1(O)CC[C@H]2[C@@H]3CCC4=CC(=O)CC[C@]4(C)[C@H]3CC[C@@]21C` [ethisterone], the androgenic activity [3] is listed as “possess androgenic activity”.

For `CC(C)C[C@H](NC(=O)[C@@H](COC(C)(C)C)NC(=O)[C@H](Cc1ccc(O)cc1)NC(=O)[C@H](CO)NC(=O)[C@H](Cc1c[nH]c2ccccc12)NC(=O)[C@H](Cc1cnc[nH]1)NC(=O)[C@@H]1CCC(=O)N1)C(=O)N[C@@H](CCCNC(=N)N)C(=O)N1CCC[C@H]1C(=O)NNC(N)=O` [goserelin], the “patients with transient increase in bone pain” value [9] is listed as 58.5%.

In the case of `C[C@]12CC[C@H]3[C@@H](CCC4=CC(=O)CC[C@@H]43)[C@@H]1CC[C@@H]2O` [nor-testosterone], the androgenic activity [3] is listed as “possess androgenic activity”.
